The text below walks through data of article PMC10204090, “TFBMiner: A User-Friendly Command Line Tool for the Rapid Mining of Transcription Factor-Based Biosensors” (ACS Synthetic Biology, 2023).

For this assay, the target named is T1, P. hospita MdlR (C2L64_43720) (Paraburkholderia hospita, UniProt A0AAN1MPU5).
T1 construct: gene WQE_50835; full-length LysR-type regulator, gene codon-optimised for E. coli, expressed from Ptrc in E. coli NEB 5-alpha; rfp reporter under P. hospita PmdlC (PC2L64_43715)
T1 sequence (A0AAN1MPU5 1-297): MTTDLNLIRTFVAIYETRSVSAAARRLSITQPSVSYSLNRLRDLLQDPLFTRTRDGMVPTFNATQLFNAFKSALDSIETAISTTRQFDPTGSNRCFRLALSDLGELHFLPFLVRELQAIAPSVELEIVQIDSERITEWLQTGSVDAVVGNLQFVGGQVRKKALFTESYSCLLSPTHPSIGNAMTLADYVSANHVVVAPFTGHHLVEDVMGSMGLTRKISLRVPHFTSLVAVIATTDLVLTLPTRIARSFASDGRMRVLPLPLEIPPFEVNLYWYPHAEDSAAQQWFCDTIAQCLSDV
As to the kind of experiment: E. coli whole-cell RFP reporter assay, Hill fit. In kind it is cell-based. Conditions: read-out: Km ^a. From the text:
E. coli whole-cell RFP reporter assay, Hill fit on P. hospita MdlR (C2L64_43720)
In general terms: In a reporter assay the amount or activity of a reporter protein is the signal.

SMILES strings stand for the structures.

For the molecule `O=C(O)[C@@H](O)c1ccccc1` [compound 1, S-mandelate], the EC50 was found to be 167 µM.

`O=C(O)C(=O)c1ccccc1` [compound 4, phenylglyoxylate]: the EC50 came to 93 µM.
